Reference: EP3046573B1, “AMYLIN ANALOGUES” (Zealand Pharma A/S, priority 2013, dated 2015)
Numbered stars: 1 amine (or outer) side, 2 acyl side, 3 side chain; on linkers, the order of the positions; unused ones are H or OH. Bridge positions count the residues as written; N and C are the ends. Square brackets hold non-standard residues; d marks the D form. Peptide text beside a SMILES is read from it. * marks the point of attachment. C20 diacid = O=C(O)CCCCCCCCCCCCCCCCCCC(=O)*; γGlu = O=C(O)[C@H](CCC(=O)[*:2])N[*:1]; NMeI = CC[C@H](C)[C@H](NC)C(=O)O; Sar = CNCC(=O)O

What was measured:
[1] = target: T1, human calcitonin receptor (hCTR2) (Homo sapiens, UniProt P30988); test: hCTR2 assay: induction of cAMP (AlphaScreen cAMP Assay kit) in COS7 cells expressing hCTR2; type: cell-based; details: cAMP induction in COS7 cells expressing hCTR2; average of a minimum of 3 determinations; read-out: hCTR2 EC50
T1 construct: expressed in transfected cells
T1 sequence (P30988 25-474): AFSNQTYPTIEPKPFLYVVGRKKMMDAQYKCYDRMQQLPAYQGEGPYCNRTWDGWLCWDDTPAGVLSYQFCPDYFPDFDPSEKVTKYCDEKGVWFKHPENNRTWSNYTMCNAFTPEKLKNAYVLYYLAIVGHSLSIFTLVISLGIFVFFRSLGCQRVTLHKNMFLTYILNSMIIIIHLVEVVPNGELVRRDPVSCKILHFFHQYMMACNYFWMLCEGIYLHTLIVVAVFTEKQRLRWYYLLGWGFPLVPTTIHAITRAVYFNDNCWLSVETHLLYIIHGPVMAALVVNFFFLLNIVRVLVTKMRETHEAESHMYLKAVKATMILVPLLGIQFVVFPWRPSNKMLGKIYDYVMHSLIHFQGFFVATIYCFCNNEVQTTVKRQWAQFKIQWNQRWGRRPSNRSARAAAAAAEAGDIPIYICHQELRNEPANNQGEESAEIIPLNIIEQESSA
In short: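 Cells were seeded one day ahead, washed, then exposed to rising peptide concentrations for 15 min at 37° C in the presence of 100 µM IBMX. After lysis for 10 min at room temperature, cAMP was quantified by AlphaScreen and EC50 values derived by 4PL fitting.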

[2] = target: T2, human amylin receptor 3 (hAMYR3) consisting of hCTR2 co-expressed with human Receptor Activity Modifying Protein 3 (hRAMP3) (Homo sapiens, UniProt O60896+P30988); test: hAMYR3 assay: induction of cAMP (AlphaScreen cAMP Assay kit) in COS7 cells expressing hAMYR3; type: cell-based; details: cAMP induction in COS7 cells expressing hAMYR3; average of a minimum of 3 determinations; read-out: hAMY R3 EC50
T2 construct: expressed in transfected cells
T2 sequence (P30988 25-474): T1 sequence (P30988 25-474)
T2 sequence (O60896 24-148 partner): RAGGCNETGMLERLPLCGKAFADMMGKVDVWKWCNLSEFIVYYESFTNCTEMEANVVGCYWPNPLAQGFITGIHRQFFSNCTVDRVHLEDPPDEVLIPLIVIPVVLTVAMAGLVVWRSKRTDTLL
In short: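 cAMP accumulation read by AlphaScreen in lysates of RAMP-naive COS7 cells stably transfected with hCTR2 plus hRAMP3. Cells exposed to peptide dilutions for 15 min, 37° C, with 100 µM IBMX; 4PL fitting gave EC50 and efficacy relative to pramlintide.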

[3] = Solubility assessment (turbidity absorbance at 325 nm); type: physicochemical; details: stock 2 mg/ml diluted 1:1, ambient temperature (typically 25°C), n=1; for Solubility, Acetate buffer pH 4: 100 mM acetate buffer pH 4.0; for Solubility, Acetate buffer pH 5: 100 mM acetate buffer pH 5.0; for Solubility, Histidine buffer pH 6: 100 mM histidine buffer pH 6.0; for Solubility, Histidine buffer pH 7: 100 mM histidine buffer pH 7.0; for Solubility, Phosphate buffer pH 6: 100 mM phosphate buffer pH 6.0; for Solubility, Phosphate buffer pH 7: 100 mM phosphate buffer pH 7.0; for Solubility, Phosphate buffer pH 7.5: 100 mM phosphate buffer pH7.5
In short: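 Turbidity read as absorbance at 325 nm (also 280 nm), single samples at ambient temperature (typically 25°C); ≤ 0.02 units counts as ≥ 1 mg/ml soluble. Samples made by 1:1 dilution of a 2 mg/ml acidic stock into 100 mM acetate, histidine or phosphate buffers, pH 4.0–7.5.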

Compound | EC50 [1] [pM] | EC50 [2] [pM] | Solubility, Acetate buffer pH 4 [3] | Solubility, Acetate buffer pH 5 [3] | Solubility, Histidine buffer pH 6 [3] | Solubility, Histidine buffer pH 7 [3] | Solubility, Phosphate buffer pH 6 [3] | Solubility, Phosphate buffer pH 7 [3] | Solubility, Phosphate buffer pH 7.5 [3]
CC[C@H](C)[C@@H](C(=O)N[C@@H](CC(C)C)C(=O)N[C@@H](CO)C(=O)N[C@@H](CO)C(=O)N[C@H](C(=O)N[C@@H](CCC(=O)O)C(=O)N[C@H](C(=O)NCC(=O)N[C@@H](CO)C(=O)N[C@@H](CCC(=O)O)C(=O)N[C@H](C(=O)N1CCC[C@H]1C(N)=O)[C@@H](C)O)C(C)C)[C@@H](C)O)N(C)C(=O)[C@H](C)NC(=O)CN(C)C(=O)[C@H](Cc1ccccc1)NC(=O)[C@H](CO)NC(=O)[C@H](CO)NC(=O)[C@H](CO)NC(=O)[C@H](CO)NC(=O)[C@H](CCCNC(=N)N)NC(=O)[C@H](Cc1c[nH]cn1)NC(=O)[C@H](CC(C)C)NC(=O)[C@H](Cc1ccccc1)NC(=O)[C@H](CCC(=O)O)NC(=O)[C@H](C)NC(=O)[C@H](CC(C)C)NC(=O)[C@H](CCCNC(=N)N)NC(=O)[C@H](CC(C)C)NC(=O)[C@@H](NC(=O)[C@H](C)NC(=O)[C@@H]1CSSC[C@H](NC(=O)[C@H](CCCNC(=N)N)NC(=O)CC[C@H](NC(=O)CCCCCCCCCCCCCCCCCCC(=O)O)C(=O)O)C(=O)N[C@@H](CC(N)=O)C(=O)N[C@@H]([C@@H](C)O)C(=O)N[C@@H](C)C(=O)N[C@@H]([C@@H](C)O)C(=O)N1)[C@@H](C)O [Compound 121, [19CD]-isoGlu-RC()NTATC()ATLRLAEFLHRSSSSF-Gly(Me)-A-Ile(Me)-LSSTEVGSETP-NH2] ({C20 diacid-γGlu}-RCNTATCATLRLAEFLHRSSSSF[Sar]A[NMeI]LSSTEVGSETP-NH2; disulfide 2-7) | 150 | 300 | SS (SS indicates solubility ≥ 1mg/ml) | SS (SS indicates solubility ≥ 1mg/ml) | II (II indicates solubility ≤ 1 mg/ml) | SS (SS indicates solubility ≥ 1mg/ml) | SS (SS indicates solubility ≥ 1mg/ml) | II (II indicates solubility ≤ 1 mg/ml) | SS (SS indicates solubility ≥ 1mg/ml)
CC[C@H](C)[C@@H](C(=O)N[C@@H](CC(C)C)C(=O)N[C@@H](CO)C(=O)N[C@@H](CO)C(=O)N[C@H](C(=O)N[C@@H](CCC(=O)O)C(=O)N[C@H](C(=O)NCC(=O)N[C@@H](CO)C(=O)N[C@@H](CCC(=O)O)C(=O)N[C@H](C(=O)N1CCC[C@H]1C(N)=O)[C@@H](C)O)C(C)C)[C@@H](C)O)N(C)C(=O)[C@H](C)NC(=O)CN(C)C(=O)[C@H](Cc1ccccc1)NC(=O)[C@H](CO)NC(=O)[C@H](CO)NC(=O)[C@H](CO)NC(=O)[C@H](CO)NC(=O)[C@H](CCCNC(=N)N)NC(=O)[C@H](Cc1c[nH]cn1)NC(=O)[C@H](CC(C)C)NC(=O)[C@H](Cc1ccccc1)NC(=O)[C@H](CCC(=O)O)NC(=O)[C@H](C)NC(=O)[C@H](CC(C)C)NC(=O)[C@H](CCCNC(=N)N)NC(=O)CNC(=O)[C@@H](NC(=O)[C@H](C)NC(=O)[C@@H]1CSSC[C@H](NC(=O)[C@H](CCCNC(=N)N)NC(=O)CC[C@H](NC(=O)CCCCCCCCCCCCCCCCCCC(=O)O)C(=O)O)C(=O)N[C@@H](CC(N)=O)C(=O)N[C@@H]([C@@H](C)O)C(=O)N[C@@H](C)C(=O)N[C@@H]([C@@H](C)O)C(=O)N1)[C@@H](C)O [Compound 122, [19CD]-isoGlu-RC()NTATC()ATGRLAEFLHRSSSSF-Gly(Me)-A-Ile(Me)-LSSTEVGSETP-NH2] ({C20 diacid-γGlu}-RCNTATCATGRLAEFLHRSSSSF[Sar]A[NMeI]LSSTEVGSETP-NH2; disulfide 2-7) | 110 | 200 | SS (SS indicates solubility ≥ 1mg/ml) | SS (SS indicates solubility ≥ 1mg/ml) | SS (SS indicates solubility ≥ 1mg/ml) | SS (SS indicates solubility ≥ 1mg/ml) | SS (SS indicates solubility ≥ 1mg/ml) | SS (SS indicates solubility ≥ 1mg/ml) | SS (SS indicates solubility ≥ 1mg/ml)
